Row | melting point [°C] | SMILES
1 | 174 to 175 | CCc1coc(Cc2ccc(NC(=O)/C=C/c3cnn(C)c3-c3ccc(F)cc3)cc2)n1 [Example 98, (2E)-N-{4-[(4-Ethyl-1,3-oxazol-2-yl)methyl]phenyl}-3-[5-(4-fluorophenyl)-1-methyl-1H-pyrazol-4-yl]acrylamide]
2 | 178 to 179 | CCc1nc(Cc2ccc(NC(=O)/C=C/c3cnn(C)c3-c3ccc(F)cc3)cc2)cs1 [Example 99, (2E)-N-{4-[(2-Ethyl-1,3-thiazol-4-yl)methyl]phenyl}-3-[5-(4-fluorophenyl)-1-methyl-1H-pyrazol-4-yl]acrylamide]
3 | 192 to 193 | Cc1nc(Cc2ccc(NC(=O)/C=C/c3cnn(C)c3-c3ccc(F)cc3)cc2)cs1 [Example 100, (2E)-3-[5-(4-Fluorophenyl)-1-methyl-1H-pyrazol-4-yl]-N-{4-[(2-methyl-1,3-thiazol-4-yl)methyl]phenyl}acrylamide]
4 | 243 to 244 | Cn1nnnc1Cc1ccc(NC(=O)/C=C/c2cnn(C)c2-c2ccc(F)cc2)cc1 [Example 101, (2E)-3-[5-(4-Fluorophenyl)-1-methyl-1H-pyrazol-4-yl]-N-{4-[(1-methyl-1H-tetrazol-5-yl)methyl]phenyl}acrylamide]
5 | 159 to 161 | Cn1nnc(Cc2ccc(NC(=O)/C=C/c3cnn(C)c3-c3ccc(F)cc3)cc2)n1 [Example 102, (2E)-3-[5-(4-Fluorophenyl)-1-methyl-1H-pyrazol-4-yl]-N-{4-[(2-methyl-2H-tetrazol-5-yl)methyl]phenyl}acrylamide]
6 | 206 to 207 | CCn1nnnc1Cc1ccc(NC(=O)/C=C/c2cnn(C)c2-c2ccc(F)cc2)cc1 [Example 103, (2E)-N-{4-[(1-Ethyl-1H-tetrazol-5-yl)methyl]phenyl}-3-[5-(4-fluorophenyl)-1-methyl-1H-pyrazol-4-yl]acrylamide]
7 | 187 to 188 | CCn1nnc(Cc2ccc(NC(=O)/C=C/c3cnn(C)c3-c3ccc(F)cc3)cc2)n1 [Example 104, (2E)-N-{4-[(2-Ethyl-2H-tetrazol-5-yl)methyl]phenyl}-3-[5-(4-fluorophenyl)-1-methyl-1H-pyrazol-4-yl]acrylamide]
8 | 150 to 151 | Cn1ncc(/C=C/C(=O)Nc2ccc(CC(C)(C)C)cc2)c1-c1ccc(F)cc1 [Example 105, (2E)-3-[5-(4-Fluorophenyl)-1-methyl-1H-pyrazol-4-yl]-N-(4-neopentylphenyl)acrylamide]
9 | > 300 | Cn1ncc(/C=C/C(=O)Nc2ccc3[nH]c(=O)oc3c2)c1-c1ccc(F)cc1 [Example 106, (2E)-3-[5-(4-Fluorophenyl)-1-methyl-1H-pyrazol-4-yl]-N-(2-oxo-2,3-dihydro-1,3-benzoxazol-6-yl)acrylamide]
10 | 195 to 196 | Cn1ncc(/C=C/C(=O)Nc2ccc(Cc3nc4ccccc4o3)cc2)c1-c1ccc(F)cc1 [Example 107, (2E)-N-[4-(1,3-Benzoxazol-2-ylmethyl)phenyl]-3-[5-(4-fluorophenyl)-1-methyl-1H-pyrazol-4-yl]acrylamide]
11 | > 300 | Cn1ncc(/C=C/C(=O)Nc2ccc(Cc3nc4ccccc4[nH]3)cc2)c1-c1ccc(F)cc1 [Example 108, (2E)-N-[4-(1H-Benzimidazol-2-ylmethyl)phenyl]-3-[5-(4-fluorophenyl)-1-methyl-1H-pyrazol-4-yl]acrylamide]
12 | 177 to 178 | CCOC(=O)Cc1ccc(NC(=O)/C=C/c2cnn(C)c2-c2ccc(F)cc2)cc1 [Example 109, ethyl [4-({(2E)-3-[5-(4-fluorophenyl)-1-methyl-1H-pyrazol-4-yl]prop-2-enoyl}amino)phenyl]acetate]
13 | 214 to 215 | CCN1C(=O)SC(Cc2ccc(NC(=O)/C=C/c3cnn(C)c3-c3ccc(F)cc3)cc2)C1=O (stereo not drawn) [Example 111, (2E)-N-{4-[(3-Ethyl-2,4-dioxo-1,3-thiazolidin-5-yl)methyl]phenyl}-3-[5-(4-fluorophenyl)-1-methyl-1H-pyrazol-4-yl]acrylamide]
14 | 200 to 201 | CCc1csc(CCc2ccc(NC(=O)/C=C/c3cnn(C)c3-c3ccc(F)cc3)cc2)n1 [Example 113, (2E)-N-{4-[2-(4-Ethyl-1,3-thiazol-2-yl)ethyl]phenyl}-3-[5-(4-fluorophenyl)-1-methyl-1H-pyrazol-4-yl]acrylamide]
15 | 188 to 189 | Cn1ncc(/C=C/C(=O)Nc2ccc(CC(C)(C)O)cc2)c1-c1ccc(F)cc1 [Example 114, (2E)-3-[5-(4-Fluorophenyl)-1-methyl-1H-pyrazol-4-yl]-N-[4-(2-hydroxy-2-methylpropyl)phenyl]acrylamide]
16 | 150 to 151 | CCC(O)(CC)Cc1ccc(NC(=O)/C=C/c2cnn(C)c2-c2ccc(F)cc2)cc1 [Example 115, (2E)-N-[4-(2-Ethyl-2-hydroxybutyl)phenyl]-3-[5-(4-fluorophenyl)-1-methyl-1H-pyrazol-4-yl]acrylamide]
17 | 183 to 184 | Cc1nc(Cc2ccc(NC(=O)/C=C/c3cnn(C)c3-c3ccc(F)cc3)cc2)no1 [Example 116, (2E)-3-[5-(4-Fluorophenyl)-1-methyl-1H-pyrazol-4-yl]-N-{4-[(5-methyl-1,2,4-oxadiazol-3-yl)methyl]phenyl}acrylamide]

Row | melting point [°C] | SMILES
18 | 192 to 193 | CC(=O)N(C)Cc1ccc(NC(=O)/C=C/c2cnn(C)c2-c2ccc(F)cc2)cc1 [Example 117, (2E)-N-(4-{[Acetyl(methyl)amino]methyl}phenyl)-3-[5-(4-fluorophenyl)-1-methyl-1H-pyrazol-4-yl]acrylamide]
19 | 150 to 152 | CCc1nc(Cc2ccc(NC(=O)/C=C/c3cnn(C)c3-c3ccc(F)cc3)cc2)no1 [Example 118, (2E)-N-{4-[(5-Ethyl-1,2,4-oxadiazol-3-yl)methyl]phenyl}-3-[5-(4-fluorophenyl)-1-methyl-1H-pyrazol-4-yl]acrylamide]
20 | 200 to 201 | Cn1ncc(/C=C/C(=O)Nc2ccc(Cc3nn(C)c(=O)o3)cc2)c1-c1ccc(F)cc1 [Example 119, (2E)-3-[5-(4-Fluorophenyl)-1-methyl-1H-pyrazol-4-yl]-N-{4-[(4-methyl-5-oxo-4,5-dihydro-1,3,4-oxadiazol-2-yl)methyl]phenyl}acrylamide]
21 | 149 to 150 | CCn1nc(Cc2ccc(NC(=O)/C=C/c3cnn(C)c3-c3ccc(F)cc3)cc2)oc1=O [Example 120, (2E)-N-{4-[(4-Ethyl-5-oxo-4,5-dihydro-1,3,4-oxadiazol-2-yl)methyl]phenyl}-3-[5-(4-fluorophenyl)-1-methyl-1H-pyrazol-4-yl]acrylamide]
22 | 265 to 266 | Cn1ncc(/C=C/C(=O)Nc2ccc3c(c2)oc(=O)n3C)c1-c1ccc(F)cc1 [Example 122, (2E)-3-[5-(4-Fluorophenyl)-1-methyl-1H-pyrazol-4-yl]-N-(3-methyl-2-oxo-2,3-dihydro-1,3-benzoxazol-6-yl)acrylamide]
23 | 210 to 211 | Cc1nc(Cc2ccc(NC(=O)/C=C/c3cnn(C)c3-c3ccc(F)cc3)cc2)sc1C [Example 123, (2E)-N-{4-[(4,5-Dimethyl-1,3-thiazol-2-yl)methyl]phenyl}-3-{5-(4-fluorophenyl)-1-methyl-1H-pyrazol-4-yl}acrylamide]
24 | 205 to 206 | Cn1ncc(/C=C/C(=O)Nc2ccc(Cc3nc4c(s3)CCCC4)cc2)c1-c1ccc(F)cc1 [Example 124, (2E)-3-[5-(4-Fluorophenyl)-1-methyl-1H-pyrazol-4-yl]-N-[4-(4,5,6,7-tetrahydro-1,3-benzothiazol-2-ylmethyl)phenyl]acrylamide]
25 | 211 to 212 | CCc1csc(Cc2ccc(NC(=O)/C=C/c3cnn(C)c3-c3ccc(F)cc3)cc2)n1 [Example 125, (2E)-N-{4-[(4-ethyl-1,3-thiazol-2-yl)methyl]phenyl}-3-[5-(4-fluorophenyl)-1-methyl-1H-pyrazol-4-yl]acrylamide]
26 | 189 to 190 | CCOC(=O)c1csc(Cc2ccc(NC(=O)/C=C/c3cnn(C)c3-c3ccc(F)cc3)cc2)n1 [Example 126, Ethyl 2-[4-({(2E)-3-[5-(4-fluorophenyl)-1-methyl-1H-pyrazol-4-yl]prop-2-enoyl}amino)benzyl]-1,3-thiazole-4-carboxylate]
27 | 217 to 218 | Cc1csc(Cc2ccc(NC(=O)/C=C/c3cnn(C)c3-c3ccc(F)cc3)cc2)n1 [Example 127, (2E)-3-[5-(4-Fluorophenyl)-1-methyl-1H-pyrazol-4-yl]-N-(4-[(4-methyl-1,3-thiazol-2-yl)methyl)phenyl]acrylamide]
28 | 209 to 210 | Cn1ncc(/C=C/C(=O)Nc2ccc(Cc3nccs3)cc2)c1-c1ccc(F)cc1 [Example 128, (2E)-3-[5-(4-Fluorophenyl)-1-methyl-1H-pyrazol-4-yl]-N-{4-[(1,3-thiazol-2-yl)methyl]phenyl}acrylamide]
29 | 223 to 224 | Cn1ncc(/C=C/C(=O)Nc2ccc(Cc3nnco3)cc2)c1-c1ccc(F)cc1 [Example 129, (2E)-3-[5-(4-Fluorophenyl)-1-methyl-1H-pyrazol-4-yl]-N-[4-(1,3,4-oxadiazol-2-ylmethyl)phenyl]acrylamide]
30 | 201 to 202 | Cn1ncc(/C=C/C(=O)Nc2ccc(CCc3nccs3)cc2)c1-c1ccc(F)cc1 [Example 130, (2E)-3-[5-(4-Fluorophenyl)-1-methyl-1H-pyrazol-4-yl]-N-(4-[2-(1,3-thiazol-2-yl)ethyl]phenyl}acrylamide]
31 | 226 to 227 | Cn1ncc(/C=C/C(=O)Nc2ccc(Cc3nc(C(=O)O)cs3)cc2)c1-c1ccc(F)cc1 [Example 131, 2-[4-({(2E)-3-[5-(4-fluorophenyl)-1-methyl-1H-pyrazol-4-yl]prop-2-enoyl}amino)benzyl]-1,3-thiazole-4-carboxylic acid]
32 | 159 to 160 | Cn1ncc(/C=C/C(=O)Nc2ccc(Cc3nc(C(N)=O)cs3)cc2)c1-c1ccc(F)cc1 [Example 132, 2-[4-({(2E)-3-[5-(4-fluorophenyl)-1-methyl-1H-pyrazol-4-yl]prop-2-enoyl}amino)benzyl]-1,3-thiazole-4-carboxamide]
33 | 245 to 246 | Cn1ncc(/C=C/C(=O)Nc2ccc(CC(=O)O)cc2)c1-c1ccc(F)cc1 [Example 133, [4-({(2E)-3-[5-(4-fluorophenyl)-1-methyl-1H-pyrazol-4-yl]prop-2-enoyl]amino}phenyl]acetic acid]

From patent US7423159B2, “Agent for preventing or treating neuropathy” (Takeda Pharmaceutical Company Limited, priority 2002, dated 2008)
